Source: patent publication US20170226081A1, “GLUCOSE TRANSPORT INHIBITORS” (Bayer Pharma Aktiengesellschaft, priority 2014, published 2017)

Columns and labels:
GLUT1 = target: T1, GLUT1 (Homo sapiens, UniProt P11166); test: Indirect measurement of GLUT activity by quantification of intracellular ATP levels (glucose induced ATP increase); format: cell-based; settings: DLD1 cells; 1 mM glucose, 1 uM Rotenone, 15 min; standardized to cytochalasin B IC50 values; read-out: IC50 regarding glucose induced ATP increase (GLUT1 inhibition)
T1 construct: endogenous in cells
T1 sequence (P11166 1-492): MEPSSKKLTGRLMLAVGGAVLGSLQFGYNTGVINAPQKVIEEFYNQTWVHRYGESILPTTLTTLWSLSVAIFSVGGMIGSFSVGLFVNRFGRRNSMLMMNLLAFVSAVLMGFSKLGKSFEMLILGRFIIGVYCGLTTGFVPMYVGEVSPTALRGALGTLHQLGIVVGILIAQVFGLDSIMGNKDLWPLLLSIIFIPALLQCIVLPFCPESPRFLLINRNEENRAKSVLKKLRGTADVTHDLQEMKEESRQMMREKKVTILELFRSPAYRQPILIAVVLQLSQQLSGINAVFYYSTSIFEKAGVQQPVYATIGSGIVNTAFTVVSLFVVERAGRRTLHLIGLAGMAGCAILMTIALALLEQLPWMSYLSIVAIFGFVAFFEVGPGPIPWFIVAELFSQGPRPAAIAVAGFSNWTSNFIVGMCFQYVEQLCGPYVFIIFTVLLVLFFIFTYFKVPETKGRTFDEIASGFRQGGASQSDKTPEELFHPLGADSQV
Source text: (§1) It is well known that a combination of small-molecule inhibitors of mitochondrial electron transport chain and glucose catabolism synergistically suppress ATP production and impair cellular viability (Ulanovskaya et al., 2008, 2011; Liu, et al. 2001). We therefore used DLD1 or CHO-K1 cells in combination with an oxidative phosphorylation inhibitor to identify GLUT inhibitors. Cell lines were maintained in DMEM medium supplemented with 10% FCS and 1% Penicillin-Streptomycin solution and 2% Glutamax. The cells were treated with trypsin and seeded into 384 plates at a density of 4000 cells/well. The cells were then cultured overnight in glucose free media containing 1% FCS to reduce intracellular ATP levels. After 24 h the cells were incubated at 37° C. containing the appropriate glucose or in case of GLUT2 fructose concentration (1 mM and 30 mM respectively) with or without compounds and 1 uM Rotenone for 15 min. The CellTiter-Glo® Luminescent Cell Viability Assay from Promega was then used to measure ATP levels. Compounds able to reduce the ATP Levels within 15 min of glucose application were considered to be glucose uptake inhibitors.

GLUT2 = target: T2, GLUT2 (Homo sapiens, UniProt P11168); test: Indirect measurement of GLUT activity by quantification of intracellular ATP levels (fructose induced ATP increase); format: cell-based; settings: 30 mM fructose, 1 uM Rotenone, 15 min; read-out: IC50 regarding fructose induced ATP increase (GLUT2 inhibition)
T2 sequence (P11168 1-524): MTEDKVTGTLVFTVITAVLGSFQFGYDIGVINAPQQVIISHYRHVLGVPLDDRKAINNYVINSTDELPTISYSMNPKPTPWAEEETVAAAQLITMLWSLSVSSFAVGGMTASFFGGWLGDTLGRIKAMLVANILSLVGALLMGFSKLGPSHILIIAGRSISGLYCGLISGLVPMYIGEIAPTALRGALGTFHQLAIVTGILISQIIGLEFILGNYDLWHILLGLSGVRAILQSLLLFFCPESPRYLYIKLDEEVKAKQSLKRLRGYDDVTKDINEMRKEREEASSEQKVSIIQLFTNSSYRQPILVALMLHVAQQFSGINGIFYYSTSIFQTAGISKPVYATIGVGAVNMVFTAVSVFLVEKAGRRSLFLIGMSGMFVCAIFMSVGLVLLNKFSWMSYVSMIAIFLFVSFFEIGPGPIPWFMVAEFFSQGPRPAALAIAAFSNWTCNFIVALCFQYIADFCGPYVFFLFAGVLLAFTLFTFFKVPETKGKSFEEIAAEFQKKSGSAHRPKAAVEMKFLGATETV
Source text: as §1

SMILES	IC50 (GLUT1) [nM]	IC50 (GLUT2) [nM]
Cc1ccc2nc(C)cc(C(=O)Nc3cn(Cc4ccc(F)cc4)nc3C)c2c1 [Example 1, N-[1-(4-fluorobenzyl)-3-methyl-1H-pyrazol-4-yl]-2,6-dimethylquinoline-4-carboxamide]	61	5210
Cc1nn(Cc2ccc(C#N)cc2)cc1NC(=O)c1cc(C(N)=O)nc2ccccc12 [Example 9, N^4-[1-(4-cyanobenzyl)-3-methyl-1H-pyrazol-4-yl]quinoline-2,4-dicarboxamide]	4.3	36100
CCc1nn(Cc2ccc(C#N)cc2)cc1NC(=O)c1cc(C(N)=O)nc2ccccc12 [Example 60, N^4-[1-(4-cyanobenzyl)-3-ethyl-1H-pyrazol-4-yl]quinoline-2,4-dicarboxamide]	23	–
CC(C)c1nn(Cc2ccc(C#N)cc2)cc1NC(=O)c1cc(C(N)=O)nc2cc(F)ccc12 [Example 62, N^4-[1-(4-cyanobenzyl)-3-isopropyl-1H-pyrazol-4-yl]-7-fluoroquinoline-2,4-dicarboxamide]	120	–
Cc1nn(Cc2ccn(C)n2)cc1NC(=O)c1cc(C(N)=O)nc2ccccc12 [Example 63, N^4-{3-methyl-1-[(1-methyl-1H-pyrazol-3-yl)methyl]-1H-pyrazol-4-yl}quinoline-2,4-dicarboxamide]	190	–
CCc1noc(Cn2cc(NC(=O)c3cc(C(F)(F)F)nc4ccc(Br)cc34)c(C)n2)n1 [Example 64, 6-bromo-N-{1-[(3-ethyl-1,2,4-oxadiazol-5-yl)methyl]-3-methyl-1H-pyrazol-4-yl}-2-(trifluoromethyl)quinoline-4-carboxamide]	391	–
CNC(=O)c1nc(Cn2cc(NC(=O)c3cc(C(N)=O)nc4ccccc34)c(C)n2)no1 [Example 65, N^4-(3-methyl-1-{[5-(methylcarbamoyl)-1,2,4-oxadiazol-3-yl]methyl}-1H-pyrazol-4-yl)quinoline-2,4-dicarboxamide]	301	–
CCc1noc(Cn2cc(NC(=O)c3cc(C(N)=O)nc4ccccc34)c(C)n2)n1 [Example 66, N^4-{1-[(3-ethyl-1,2,4-oxadiazol-5-yl)methyl]-3-methyl-1H-pyrazol-4-yl}quinoline-2,4-dicarboxamide]	430	–
CCS(=O)(=O)N1CCC(Cn2cc(NC(=O)c3cc(C(F)(F)F)nc4ccc(Br)cc34)c(C)n2)CC1 [Example 67, 6-bromo-N-(1-{[1-(ethylsulfonyl)piperidin-4-yl]methyl}-3-methyl-1H-pyrazol-4-yl)-2-(trifluoromethyl)quinoline-4-carboxamide]	665	–
Cc1nc(Cn2cc(NC(=O)c3cc(C(N)=O)nc4ccccc34)c(C)n2)cs1 [Example 68, N^4-{3-methyl-1-[(2-methyl-1,3-thiazol-4-yl)methyl]-1H-pyrazol-4-yl}quinoline-2,4-dicarboxamide]	260	–
CNC(=O)c1nc(Cn2cc(NC(=O)c3cc(C(F)(F)F)nc4ccc(Br)cc34)c(C)n2)no1 [Example 69, 6-bromo-N-(3-methyl-1-{[5-(methylcarbamoyl)-1,2,4-oxadiazol-3-yl]methyl}-1H-pyrazol-4-yl)-2-(trifluoromethyl)quinoline-4-carboxamide]	64	–
Cc1nc(Cn2cc(NC(=O)c3cc(C(F)(F)F)nc4ccc(Br)cc34)c(C)n2)cs1 [Example 70, 6-bromo-N-{3-methyl-1-[(2-methyl-1,3-thiazol-4-yl)methyl]-1H-pyrazol-4-yl}-2-(trifluoromethyl)quinoline-4-carboxamide]	275	–
Cc1cc(Cn2cc(NC(=O)c3cc(C(F)(F)F)nc4ccc(Br)cc34)c(C)n2)no1 [Example 71, 6-bromo-N-{3-methyl-1-[(5-methyl-1,2-oxazol-3-yl)methyl]-1H-pyrazol-4-yl}-2-(trifluoromethyl)quinoline-4-carboxamide]	294	–
CCS(=O)(=O)N1CCC(Cn2cc(NC(=O)c3cc(C(N)=O)nc4ccccc34)c(C)n2)CC1 [Example 72, N^4-(1-{[1-(ethylsulfonyl)piperidin-4-yl]methyl}-3-methyl-1H-pyrazol-4-yl)quinoline-2,4-dicarboxamide]	247	–
Cc1nn(Cc2ccn(C)n2)cc1NC(=O)c1cc(C(F)(F)F)nc2ccc(Br)cc12 [Example 73, 6-bromo-N-{3-methyl-1-[(1-methyl-1H-pyrazol-3-yl)methyl]-1H-pyrazol-4-yl}-2-(trifluoromethyl)quinoline-4-carboxamide]	172	–
Cc1cc(Cn2cc(NC(=O)c3cc(C(N)=O)nc4ccccc34)c(C)n2)no1 [Example 74, N^4-{3-methyl-1-[(5-methyl-1,2-oxazol-3-yl)methyl]-1H-pyrazol-4-yl}quinoline-2,4-dicarboxamide]	153	–
